Consider 18 molecules from patent US12622917B2, “High-activity Wnt pathway inhibitor compound” (ADLAI NORTYE BIOPHARMA CO., LTD., priority 2020, dated 2026).

Where only a bound is given, the exact number is not on record here.

For one test, the system named is NCI-H929. The test is described as follows: Proliferation inhibition, NCI-H929 cell line. The test is classed as cell-based, human. Conditions: Homo sapiens; NCI-H929 cells, 96 hours culture, cell viability detection; read-out: Antiproliferative IC50 NCI-H929. The source says:
(§1) The cell lines used in the test are NCI-H929 and HepG2 cell lines whose Wnt pathway is continuously activated and whose proliferation is Wnt pathway-dependent; the inhibitory effect of the compound of the present invention on Wnt-dependent proliferation is judged.
(§2) Treat the NCI-H929 and HepG2 cell lines cultured in their respective mediums in the logarithmic growth phase, collect the cells and prepare a uniform cell suspension of known concentration, and then add the cell suspension to the 96-well cell culture plate solution so that each well contains 4000 cells. Put it into a […] incubator and incubate at 37° C. for 20-24 h. On the second day, the fully dissolved, 3-fold serially diluted compound was added to each cell culture well, so that the final maximum concentration in the cell culture well was 20 uM, and the culture was continued for 96 hours. In this test, Promega's cell viability detection test is used for detection. The more the cells proliferate, the stronger the final signal intensity will be. The detection instrument is SpectraMax, full wavelength mode. The wells only added with DMSO were used as positive control wells, and the wells that were not inoculated with cells were used as negative control wells. […] The IC50 value of cell proliferation inhibition was used to evaluate the inhibitory effect of the compound on the Wnt pathway and the toxic effect on normal cells (Table 3).

The next test has as its system HepG2. The test is described as follows: Proliferation inhibition, HepG2 cell line. The test is classed as cell-based. Conditions: Homo sapiens; HepG2 cells, 96 hours culture, cell viability detection; read-out: Antiproliferative IC50 HepG2.
Description: as §1, §2

A further test relates to Colo205. Description: Proliferation inhibition, Wnt mutant cell line Colo205. The test is classed as cell-based. Particulars: Homo sapiens, COLO 205; Colo205, Wnt pathway-dependent, 96 hours; read-out: Antiproliferative IC50 Colo205. The procedure, abridged: (§3)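 Cells were seeded at 1000 per well, incubated 20-24 h at 37° C in 5% CO2, then exposed to 3-fold serially diluted compound (top final concentration 20 uM) for 96 hours. Viability was read by a Promega cell viability assay; IC50 values were derived relative to DMSO-only and cell-free control wells.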

Test [1] concerns Colo205-LUC-TCF/LEF M1 reporter cell line (Wnt pathway). The test is described as follows: Colo205-LUC-TCF/LEF M1 reporter gene (luciferase) inhibition. Particulars: 4 hours incubation, luciferase readout. The test is classed as cell-based. The procedure, abridged: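 Luminescent readout of TCF/LEF-regulated luciferase after a 4 h, 37° C compound exposure in a stable Colo205 reporter clone (10,000 cells/well). Serial 3-fold dilutions started at 20 uM; IC50 derived using DMSO-treated cells and no-cell wells as controls.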
On the technique in general: Reporter assays use an easily measured gene product as a stand-in for the process of interest.

For a further test, the system named is RKO. Description: Proliferation inhibition, non-Wnt mutant control cell line RKO. The test is classed as cell-based. Conditions: Homo sapiens, Wnt-independent control cell line, 96 hours, read-out: Antiproliferative IC50 RKO. The procedure, abridged: as §3
The next test relates to DU4475. The test is described as follows: Proliferation inhibition, Wnt mutant cell line DU4475. The class given is cell-based. Conditions: Homo sapiens, DU-4475; DU4475, Wnt pathway-dependent, 96 hours; read-out: Antiproliferative IC50 DU4475. The source says:
The cell lines used in the experiment are Colo205 and DU4475 cell lines whose Wnt pathway is continuously activated and whose proliferation is Wnt pathway-dependent; while the BELA and RKO cell lines, whose Wnt pathway is not activated under normal circumstances and the proliferation is independent of Wnt pathway, as control cell lines. It is Judged that the inhibitory effect of the compound of the present invention on Wnt-dependent proliferation is not caused by other non-specific toxicity.
Treat the Colo205, Du4475, HELA and RKO cell lines cultured in their respective mediums in the logarithmic growth phase, collect the cells and prepare a uniform cell suspension of known concentration, and then add it to the 96-well cell culture plate Cell suspension, so that each well contains 1000 cells. Put it into a 5% CO2 incubator and incubate at 37° C. for 20-24 h. On the second day, the fully dissolved, 3-fold serially diluted compound was added to each cell culture well, so that the final maximum concentration in the cell culture well was 20 uM, and the culture was continued for 96 hours. In this test, Promega's cell viability detection test is used for detection. The more the cells proliferate, the stronger the final signal intensity will be. The detection instrument is SpectraMax, full wavelength mode. The wells only added with DMSO were used as positive control wells, and the wells that were not inoculated with cells were used as negative control wells. […] The IC50 value of cell proliferation inhibition was used to evaluate the inhibitory effect of the compound on the Wnt pathway and the toxic effect on normal cells (Table 2).

A word on the IC50: it is the concentration needed to halve the response being measured.

For `C[C@H](F)[C@H]1C(=O)N2CCCc3nc(NCc4ccc(Oc5ccc(C(F)(F)F)nc5)nc4)nc(c32)N1C` [126 (W308), (R)-5-((S)-1-fluoroethyl)-4-methyl-2-(((6-((6-(trifluoromethyl)pyridin-3-yl)oxo)pyridine-3-yl)methyl)amino)-4,5,9,10-tetrahydro-6H,8H-pyrido[3,2,1-de]pteridin-6-one], the IC50 in the test on NCI-H929 is 39 nM; in the test on HepG2, 2.7 nM; with Colo205, 9.1 nM; in test [1], 10 nM; with RKO, greater than 10000 nM; in the test with DU4475 it was less than 0.5 nM.
Regarding `CCN1c2nc(NCc3ccc(Oc4ccc(C(F)(F)F)nc4)nc3)nc3c2N(CCC3)C(=O)[C@@H]1C` [116 (W249), (S)-4-ethyl-5-methyl-2-(((6-((6-(trifluoromethyl)pyridin-3-yl)oxo)pyridin-3-yl)methyl)amino)-4,5,9,10-tetrahydro-6H,8H-pyrido[3,2,1-de]pteridin-6-one], the IC50 with NCI-H929 was 17 nM; in the test with HepG2, 69 nM; in the test with Colo205 it was 36 nM; in test [1] it was 30 nM; with RKO, greater than 10000 nM; in the test on DU4475, 46 nM.
`CN1c2nc(NCc3ccc(Oc4cnc(C(F)(F)F)nc4)nc3)nc3c2N(CCC3)C(=O)[C@@H]1C(C)(C)F` [151 (W332)]: the IC50 is 26 nM with NCI-H929; 9.8 nM with HepG2; 11 nM in the test on Colo205; 50 nM in test [1]; greater than 10000 nM with RKO; 13 nM in the test on DU4475.
As for `[2H]C([2H])([2H])N1c2nc(NCc3ccc(Oc4cnc(C(F)(F)F)nc4)nc3)nc3c2N(CCC3)C(=O)[C@@H]1COC` [178 (W333)], the IC50 in the test with NCI-H929 was 60 nM; in the test with HepG2, 23 nM; in the test with Colo205, 19.2 nM; in test [1], 39 nM; in the test with RKO, greater than 10000 nM; with DU4475, 13.7 nM.
Consider `[2H]C([2H])([2H])N1c2nc(NCc3ccc(Oc4ccc(C(F)(F)F)nc4)nc3)nc3c2N(CCC3)C(=O)[C@@H]1CC(F)F` [163 (W325)], for which the IC50 in the test with NCI-H929 was 31 nM; in the test with HepG2, 7 nM; in the test on Colo205, 5 nM; in test [1] it was 16 nM; with RKO, greater than 10000 nM; with DU4475, 4.7 nM.
On to `CCN1c2nc(NCc3ccc(Oc4ccc(C(F)(F)F)nc4)nc3)nc3c2N(CCC3)C(=O)[C@@H]1C(C)C` [118 (W279), (S)-4-ethyl-5-isopropyl-2-(((6-((6-(trifluoromethyl)pyridin-3-yl)oxo)pyridin-3-yl)methyl)amino)-4,5,9,10-tetrahydro-6H,8H-pyrido[3,2,1-de]pteridin-6-one], for which the concentration for half-maximal inhibition (IC50) was 83 nM with NCI-H929; 16 nM in the test with HepG2; 8.5 nM with Colo205; 5 nM in test [1]; greater than 10000 nM in the test with RKO; 6.5 nM in the test on DU4475.
As for `[2H]C([2H])([2H])N1c2nc(NCc3ccc(Oc4ccc(C(F)(F)F)nc4)nc3)nc3c2N(CCC3)C(=O)[C@@H]1CC(F)(F)F` [196 (W344)], the half-inhibitory concentration (IC50) in the test on NCI-H929 was 54 nM; in the test with HepG2, 1.2 nM; in the test with Colo205, 1.4 nM; in test [1], 7 nM; with RKO, greater than 10000 nM; with DU4475, less than 0.5 nM.
`CN1c2nc(NCc3ccc(Oc4cnc(C(F)(F)F)nc4)nc3)nc3c2N(CCC3)C(=O)[C@@H]1CC(F)(F)F` [199 (W319)]: the IC50 in the test with NCI-H929 was 28 nM; in the test with HepG2, 2 nM; with Colo205, 6.9 nM; in test [1], 9 nM; in the test with RKO it was greater than 10000 nM; with DU4475 it was less than 0.5 nM.
In the case of `CC[C@H]1C(=O)N2CCCc3nc(NCc4ccc(Oc5ccc(C(F)(F)F)nc5)nc4)nc(c32)N1C` [119 (W255), (S)-5-ethyl-4-methyl-2-(((6-((6-(trifluoromethyl)pyridin-3-yl)oxo)pyridin-3-yl)methyl)amino)-4,5,9,10-tetrahydro-6H,8H-pyrido[3,2,1-de]pteridin-6-one], the IC50 was 28 nM with NCI-H929; 5.4 nM with HepG2; 7.5 nM in the test with Colo205; 7 nM in test [1]; greater than 10000 nM in the test with RKO; 2.3 nM with DU4475.
Regarding `CCN1c2nc(NCc3ccc(Oc4cc(C(F)(F)F)nn4C)nc3)nc3c2N(CCC3)C(=O)[C@@H]1C` [153 (W293)], the IC50 in the test on NCI-H929 is 37 nM; in the test on HepG2, 19 nM; in the test with Colo205, 21 nM; in test [1], 15 nM; with RKO it was greater than 10000 nM; in the test on DU4475, 3.9 nM.
With `CCN1c2nc(NCc3ccc(Oc4cnc(C(F)(F)F)nc4)nc3)nc3c2N(CCC3)C(=O)[C@@H]1C` [168 (W298)], the half-maximal inhibitory concentration (IC50) in the test on NCI-H929 is 68 nM; in the test on HepG2, 35 nM; with Colo205, 29 nM; in test [1] it was 26 nM; in the test with RKO, greater than 10000 nM; in the test with DU4475, 11 nM.
For `C[C@H]1C(=O)N2CCCc3nc(NCc4ccc(Oc5cc(C(F)(F)F)nn5C5CC5)nc4)nc(c32)N1C` [130 (W354), (S)-2-(((6-((1-cyclopropyl-3-(trifluoromethyl)-1H-pyrazol-5-yl)oxo)pyridin-3-yl)methyl)amino)-4,5-dimethyl-4,5,9,10-tetrahydro-6H,8H-pyrido[3,2,1-de]pteridin-6-one], the IC50 in the test with NCI-H929 was 19 nM; in the test on HepG2, less than 0.5 nM; in the test on Colo205 it was less than 0.5 nM; in test [1], less than 0.5 nM; in the test on RKO, greater than 10000 nM.
With `COC[C@@]1(C)C(=O)N2CCCc3nc(NCc4ccc(Oc5cnc(C(F)(F)F)nc5)nc4)nc(c32)N1C` [180 (W386)], the IC50 in the test on NCI-H929 was 82 nM; in the test on HepG2, 40 nM; with Colo205, 14.6 nM; in test [1], 23 nM; with RKO it was greater than 10000 nM.
For `[2H]C([2H])([2H])N1c2nc(NCc3ccc(Oc4cc(C(F)(F)F)nn4CC)nc3)nc3c2N(CCC3)C(=O)[C@@H]1COC` [201 (W360)], in that order: 51 nM, 14 nM, 3.6 nM, 6 nM and greater than 10000 nM.
For `C[C@@H](O)[C@H]1C(=O)N2CCCc3nc(NCc4ccc(Oc5cc(C(F)(F)F)nn5C5CC5)nc4)nc(c32)N1C` [206 (W388)], in that order: 90 nM, 49 nM, 10 nM, 24 nM and greater than 10000 nM.
For `CC(C)N1c2nc(NCc3ccc(Oc4cnc(C(F)(F)F)nc4)nc3)nc3c2N(CCC3)C(=O)[C@@H]1C` [170 (W368)], in that order: 94 nM, 31 nM, 7 nM, 17 nM and greater than 10000 nM.
For `CN1c2nc(NCc3ccc(Oc4cnc(C(F)(F)F)nc4)nc3)nc3c2N(CCC3)C(=O)[C@@H]1C(C)(C)C` [160 (W362)], the IC50 was 48 nM in the test with NCI-H929; 3.5 nM in the test with HepG2; less than 0.5 nM in the test on Colo205; 3 nM in test [1]; 7150 nM in the test on RKO.
Regarding `[2H]C([2H])([2H])N1c2nc(NCc3ccc(Oc4cnc(C(F)(F)F)nc4)nc3)nc3c2N(CCC3)C(=O)C1CC(F)(F)F` (centres unmarked) [192 (W324)], the half-inhibitory concentration (IC50) with NCI-H929 is 12 nM; in the test with HepG2 it was 4 nM; with Colo205, 3.2 nM; in test [1], 23 nM; with RKO, greater than 10000 nM.
